Data set [1] has as its system Dengue virus type 2 NG-C or Dengue virus type 4 H241. As to the kind of experiment: Dengue antiviral assay (DENV). The class given is cell-based. Particulars: Huh-7.5 cells, five to six days, CellTiter-Glo. On the procedure: The Dengue virus type 2 strain New Guniea C (NG-C) and the Dengue virus type 4 strain H241 were purchased from ATCC (Manassas, Va.; item numbers VR-1584 and VR-1490, respectively). 24 hours prior to dosing, Huh-7.5 cells were plated in 96 well plates at a density of 1.5×10^5/ml in DMEM medium supplemented with 10% fetal bovine serum, 1% HEPES buffer, 1% Penicillin/Streptomycin and 1% non-essential amino acids (all Mediatech, Manassas, Va.). At the day of infection, serially diluted compounds were added to cells and incubated for 4 hours. After the end of the 4 hour pre-incubation period, cells were infected with either Dengue virus type 2 NG-C or Dengue virus type 4 H241. The virus inoculum was selected to cause 80-90% cytopathic effect in five to six days. Infected cells were incubated for five (NG-C) to six (H241) days at 37° C., 5% CO2. To develop the assay, 100 μl media was replaced with 100 μl CellTiter-Glo® reagent (Promega, Madison, Wis.), and incubated for 10 min at room temperature. Luminescence was measured on a Victor X3 multi-label plate reader. Potential compound cytotoxicity was determined using uninfected parallel cultures.

Data set [2] can be described thus: Cell viability (CC50) in the RSV replicon assay. The settings on record: human, HeLa-derived cells containing the stable RSV replicon, CellTiter-Glo. (In general: Replicon systems follow genome replication, usually without infectious particles.)
Data set [3] is described as follows: Cytotoxicity in the DENV assay, uninfected parallel cultures. Particulars: human, DENV CC50, uninfected Huh-7.5 parallel cultures.
A short description of data set [4]: Cytotoxicity in the coronavirus assay, uninfected parallel cultures. The class given is cell-based. The settings on record: human, read-out: OC43CoV CC50. The method, then: (§1) The human β-coronavirus strain OC43 was purchased from ATCC (Manassas, Va.; item numbers VR-1558 and VR-740, respectively). 24 hours prior to dosing, HeLa human cervix epithelial cells (ATCC, CCL-2) or MRC-5 human lung fibroblast (ATCC, CCL-171) were plated in 96 well plates at a density of 1.5×10^5/ml in DMEM medium supplemented with 10% fetal bovine serum, 1% HEPES buffer, 1% Penicillin/Streptomycin and 1% non-essential amino acids (all Mediatech, Manassas, Va.). At the day of infection, serially diluted compounds were added to cells and incubated for 4 hours. After the end of the 4 hour pre-incubation period, cells were infected with either coronavirus strain OC43 or 229E. The virus inoculum was selected to cause 80-90% cytopathic effect. Infected cells were incubated for five days at 37° C., 5% CO2. To develop the assay, 100 μl media was replaced with 100 μl CellTiter-Glo® reagent (Promega, Madison, Wis.), and incubated for 10 min at room temperature. Luminescence was measured on a Victor X3 multi-label plate reader. Potential compound cytotoxicity was determined using uninfected parallel cultures.

Data set [5] deals with human β-coronavirus strain OC43. The data set can be described thus: Coronavirus antiviral assay (OC43). The data set is classed as cell-based. Particulars: Betacoronavirus 1, OC43, 120 h; HeLa or MRC-5 cells, five days, CellTiter-Glo; read-out: OC43CoV EC50. On the procedure:
as §1
On the technique in general: In ATP-based viability assays light output follows the ATP content of the culture.

In the next data set the test system is RSV replicon. The data set can be described thus: microbe, parasite or virus in culture. The data set is classed as cell-based.
The nature of data set [6]: Toxicity (CC50) in the HRV1B assay. Particulars: human.
A further data set relates to Ebola minigenome. As to the kind of experiment: microbe, parasite or virus in culture. The data set is classed as cell-based.
A short description of another data set: in vitro. The settings on record: human.
Another data set has as its system Human rhinovirus 1B. The data set can be described thus: Rhinovirus antiviral assay (HRV1B). Particulars: Rhinovirus A, 96 h, read-out: HRV 1B EC50, HeLa-OHIO cells, 4 d, CellTiter-Glo. The data set is classed as cell-based.
Data set [7] concerns the target dengue virus NS5 polymerase domain (Dengue virus type 2, UniProt P14340). The data set can be described thus: Dengue polymerase assay (DENVpol). Particulars: 100 nM recombinant enzyme, 3 hours at 30° C., mean of several independent experiments. The method, then:
The enzyme activity of dengue virus NS5 polymerase domain (DENVpol, serotype 2, New Guinea C strain) was measured as an incorporation of tritiated NMP into acid-insoluble RNA products. DENVpol assay reactions contained 100 nM recombinant enzyme, 50 nM heteropolymeric RNA, about 0.5 μCi tritiated NTP, 0.33 μM of competing cold NTP, 40 mM HEPES (pH 7.5), 3 mM dithiothreitol, and 2 mM MgCl2. Standard reactions were incubated for 3 hours at 30° C., in the presence of increasing concentration of inhibitor. At the end of the reaction, RNA was precipitated with 10% TCA, and acid-insoluble RNA products were filtered on a size exclusion 96-well plate. After washing of the plate, scintillation liquid was added and radiolabeled RNA products were detected according to standard procedures with a Trilux Topcount scintillation counter. The compound concentration at which the enzyme-catalyzed rate was reduced by 50% (IC50) was calculated by fitting the data to a non-linear regression (sigmoidal).

The target of data set [8] is hepatitis C virus RNA polymerase (Hepatitis C virus genotype 1a (isolate H77) (HCV), UniProt P27958). As to the kind of experiment: HCV polymerase assay (HCVpol). The data set is classed as biochemical. Particulars: recombinant enzyme, tritiated NMP incorporation, 2.5 hours at 30° C. The method, then: The enzyme activity of hepatitis C virus RNA polymerase (HCVpol) and human rhinovirus 16 RNA polymerase (HRV16pol) is measured as an incorporation of tritiated NMP into acid-insoluble RNA products. HCVpol and HRV16pol assay reactions contain 30-100 nM recombinant enzyme, 50-500 nM heteropolymeric RNA, 0.5 μCi tritiated NTP, 0.1-1 μM of other NTPs, in a standard reaction buffer containing MgCl2. Enzymatic reactions are incubated for 2.5 hours at 30° C., in the presence of increasing concentration of inhibitor. At the end of the reaction, the total RNA is precipitated with 10% TCA, and acid-insoluble RNA products are filtered on a size exclusion 96-well plate. After washing of the plate, scintillation liquid is added and radiolabeled RNA products are detected according to standard procedures with a Trilux Microbeta scintillation counter. The compound concentration at which the enzyme-catalyzed rate is reduced by 50% (IC50) is calculated by fitting the data to a non-linear regression (sigmoidal).
Sequence of hepatitis C virus RNA polymerase (P27958 2421-3011 limits assumed): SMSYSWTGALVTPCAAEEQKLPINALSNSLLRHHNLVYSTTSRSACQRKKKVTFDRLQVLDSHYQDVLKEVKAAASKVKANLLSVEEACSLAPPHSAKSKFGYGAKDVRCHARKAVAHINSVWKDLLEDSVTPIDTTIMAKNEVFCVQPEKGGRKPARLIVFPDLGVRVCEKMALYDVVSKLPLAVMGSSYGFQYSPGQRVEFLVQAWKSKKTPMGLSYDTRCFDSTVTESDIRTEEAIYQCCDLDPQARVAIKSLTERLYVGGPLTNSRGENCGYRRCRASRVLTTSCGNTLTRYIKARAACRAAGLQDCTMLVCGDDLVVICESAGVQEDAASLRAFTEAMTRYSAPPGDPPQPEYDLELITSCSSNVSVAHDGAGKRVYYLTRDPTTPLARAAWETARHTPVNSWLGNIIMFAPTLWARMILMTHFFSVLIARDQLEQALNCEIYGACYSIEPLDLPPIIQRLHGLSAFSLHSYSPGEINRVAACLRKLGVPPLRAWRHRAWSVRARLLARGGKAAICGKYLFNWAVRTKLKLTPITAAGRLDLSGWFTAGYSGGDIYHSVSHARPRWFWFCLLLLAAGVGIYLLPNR

The target in data set [9] is human rhinovirus 16 RNA polymerase (Human rhinovirus 16 (HRV-16), UniProt Q82122). The data set is classed as biochemical. The settings on record: recombinant enzyme, tritiated NMP incorporation, 2.5 hours at 30° C.; read-out: HRV16pol IC50.
Sequence of human rhinovirus 16 RNA polymerase (Q82122 1694-2153 limits assumed): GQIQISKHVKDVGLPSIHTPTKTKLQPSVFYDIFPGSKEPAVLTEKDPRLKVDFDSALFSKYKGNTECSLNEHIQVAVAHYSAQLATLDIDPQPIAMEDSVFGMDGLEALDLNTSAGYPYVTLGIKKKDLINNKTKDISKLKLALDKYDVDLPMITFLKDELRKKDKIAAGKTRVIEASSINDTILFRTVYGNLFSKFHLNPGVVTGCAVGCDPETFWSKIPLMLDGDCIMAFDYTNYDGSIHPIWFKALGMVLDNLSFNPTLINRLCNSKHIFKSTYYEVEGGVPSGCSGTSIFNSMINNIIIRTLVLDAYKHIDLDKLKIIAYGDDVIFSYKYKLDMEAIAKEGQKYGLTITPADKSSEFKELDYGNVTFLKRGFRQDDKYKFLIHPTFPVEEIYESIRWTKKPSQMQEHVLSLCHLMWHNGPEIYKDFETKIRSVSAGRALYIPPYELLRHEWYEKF
Where [10] appears, read: human respiratory syncytial virus, 168 h, read-out: RSV EC50, HeLa-derived RSV replicon cells, 7 days, luciferase.
Where [11] appears, read: Zaire ebolavirus, HEp-2, 48 h, read-out: EBOV EC50, HEp-2 cells, Ebola minigenome, 48 hours.

SMILES strings stand for the structures. Read-outs that look alike come from different tables or passages of the source. Some results are limits rather than exact numbers.

What is called EC50 is the concentration that produces a half-maximal response. Regarding `CC(C)OC(=O)[C@@H](C)NP(=O)(OC[C@@]1(F)O[C@@](C#N)(c2ccc3c(N)ncnn23)[C@H](O)[C@@H]1O)Oc1ccccc1` (stereo partly drawn) [Compound 5, Isopropyl ((((2S,3S,4R,5R)-5-(4-aminopyrrolo[2,1-f][1,2,4]triazin-7-yl)-5-cyano-2-fluoro-3,4-dihydroxytetrahydrofuran-2-yl)methoxy)(phenoxy)phosphoryl)-D-alaninate], the concentration for a half-maximal effect (EC50) in data set [1] (Dengue virus, Huh7.5, 144 h) was 7370 nM; in data set [5], 25300 nM; in the data set on RSV replicon (setting [10]), 2740 nM. The CC50 at 7 days in data set [2] is more than 100000 nM. In data set [3], this compound came in with a CC50 of more than 100000 nM. Besides, the CC50 at 5 days in data set [4] was more than 100000 nM.

As to `C[C@H](NP(=O)(OC[C@@]1(F)O[C@@](C#N)(c2ccc3c(N)ncnn23)[C@H](O)[C@@H]1O)Oc1ccccc1)C(=O)OCC(C)(C)C` (stereo partly drawn) [Compound 8, Neopentyl ((((2S,3S,4R,5R)-5-(4-aminopyrrolo[2,1-f][1,2,4]triazin-7-yl)-5-cyano-2-fluoro-3,4-dihydroxytetrahydrofuran-2-yl)methoxy)(phenoxy)phosphoryl)-L-alaninate], the concentration for a half-maximal effect (EC50) in [1] (Dengue virus, Huh7.5, 144 h) came out at 110 nM; in data set [1], 140 nM; in data set [5], 100 nM; in the data set on Ebola minigenome (setting [11]), 500 nM; in the data set on Ebola minigenome (read-out: EBOV EC50, HEp-2 cells, Ebola minigenome, 48 hours), 800 nM; in the data set on RSV replicon (setting [10]), 30 nM. In addition, the EC50 with RSV replicon (read-out: RSV EC50, HeLa-derived RSV replicon cells, 7 days, luciferase) was found to be 26 nM. Also, the CC50 at 4 d in data set [6] was determined as 64000 nM. Also, the CC50 at 5 days in data set [4] was more than 50000 nM. The compound also yielded a CC50 in the data set “in vitro” of more than 100000 nM.

In the case of `CCC(CC)COC(=O)[C@@H](C)NP(=O)(OC[C@@]1(F)O[C@@](C#N)(c2ccc3c(N)ncnn23)[C@H](O)[C@@H]1O)Oc1ccccc1` (stereo partly drawn) [Compound 9, 2-Ethylbutyl ((((2S,3S,4R,5R)-5-(4-aminopyrrolo[2,1-f][1,2,4]triazin-7-yl)-5-cyano-2-fluoro-3,4-dihydroxytetrahydrofuran-2-yl)methoxy)(phenoxy)phosphoryl)-D-alaninate], the half-maximal effective concentration (EC50) in [1] (Dengue virus, Huh7.5, 144 h) is 70 nM; with Human rhinovirus 1B it was 130 nM; in data set [5], 25 nM; in the data set on Ebola minigenome (setting [11]), 250 nM; in the data set with RSV replicon (setting [10]), 18 nM. The same compound registered a CC50 at 4 d in data set [6] of 33000 nM. Further, the CC50 at 7 days in [2] was 8100 nM. Further, the CC50 in data set [3] is 12000 nM; in “in vitro”, approximately 50000 nM. For the same compound, the CC50 at 5 days in data set [4] is 34000 nM.

With `CCCOC(=O)[C@H](C)NP(=O)(N[C@@H](C)C(=O)OCCC)OC[C@@]1(F)O[C@@](C#N)(c2ccc3c(N)ncnn23)[C@H](O)[C@@H]1O` [Compound 10], in [6], the CC50 at 4 d is more than 100000 nM. Besides, the EC50 with Human rhinovirus 1B was 3100 nM; in [5], 2300 nM; with RSV replicon (setting [10]) it was 170 nM. This compound showed a CC50 at 7 days in [2] of more than 100000 nM. Further, in data set [4], the CC50 at 5 days was more than 50000 nM.

`CC(C)OC(=O)[C@@H](C)NP(=O)(OC[C@@]1(N=[N+]=[N-])O[C@@](C#N)(c2ccc3c(N)ncnn23)[C@H](O)[C@@H]1O)Oc1ccccc1` (stereo partly drawn) [Compound 11, Isopropyl ((((2R,3S,4R,5R)-5-(4-aminopyrrolo[2,1-f][1,2,4]triazin-7-yl)-2-azido-5-cyano-3,4-dihydroxytetrahydrofuran-2-yl)methoxy)(phenoxy)phosphoryl)-D-alaninate] came in with a CC50 at 4 d in data set [6] of 59000 nM. The EC50 with Human rhinovirus 1B is more than 100000 nM; in [5], more than 50000 nM; with RSV replicon (setting [10]), 1300 nM. The compound also yielded a CC50 at 7 days in data set [2] of 13600 nM. Besides, the CC50 at 5 days in [4] is more than 50000 nM.

One may read the IC50 as the point on the concentration scale where inhibition reaches its midpoint. Regarding `N#C[C@@]1(c2ccc3c(N)ncnn23)O[C@](F)(COP(=O)(O)OP(=O)(O)OP(=O)(O)O)[C@@H](O)[C@H]1O` [Compound 12, ((2S,3S,4R,5R)-5-(4-Aminopyrrolo[2,1-f][1,2,4]triazin-7-yl)-5-cyano-2-fluoro-3,4-dihydroxytetrahydrofuran-2-yl)methyl tetrahydrogen triphosphate], the values for the IC50 in data set [7], in data set [8] and in data set [9] were 1100 nM, 400 nM and 130 nM, respectively.

As for `N#C[C@@]1(c2ccc3c(N)ncnn23)O[C@](CF)(COP(=O)(O)OP(=O)(O)OP(=O)(O)O)[C@@H](O)[C@H]1O` [Compound 13, ((2R,3S,4R,5R)-5-(4-Aminopyrrolo[2,1-f][1,2,4]triazin-7-yl)-5-cyano-2-(fluoromethyl)-3,4-dihydroxytetrahydrofuran-2-yl)methyl tetrahydrogen triphosphate], the half-maximal inhibitory concentration (IC50) in data set [7] was more than 10000 nM; in data set [8], more than 10000 nM; in [9] it was 210 nM.

With `N#C[C@@]1(c2ccc3c(N)ncnn23)O[C@@](COP(=O)(O)OP(=O)(O)OP(=O)(O)O)(N=[N+]=[N-])[C@@H](O)[C@H]1O` [Compound 14, ((2R,3S,4R,5R)-5-(4-Aminopyrrolo[2,1-f][1,2,4]triazin-7-yl)-2-azido-5-cyano-3,4-dihydroxytetrahydrofuran-2-yl)methyl tetrahydrogen triphosphate], the results for the IC50 in data set [7], in data set [8] and in [9] were 1100 nM, 300 nM and 40 nM, respectively.

`N#C[C@@]1(c2ccc3c(N)ncnn23)O[C@H](COP(=O)(O)OP(=O)(O)OP(=O)(O)O)[C@@H](O)[C@H]1O` [Compound C2, reference compound]: the concentration for half-maximal inhibition (IC50) was 3600 nM in [7], 1000 nM in [8] and 270 nM in [9].

For the origin of these results see patent US11149049B2, “Substituted nucleosides, nucleotides and analogs thereof” (JANSSEN BIOPHARMA, INC., priority 2017, dated 2021).
